Patent publication EP0389368B1, “New derivatives of 6-(1-piperazinyl) 2,5-pyridine diamine N,N,N',N'-substituted, procedure for their production and intermediates, their use as medicines and pharmaceutical preparations containing them” (priority 1989, dated 1990)

What was measured:
[1] = test system: péroxydation lipidique; assay: MDA formation test, enzymatic lipid peroxidation triggered by NADPH and carbon tetrachloride in liver microsomes of phenobarbital-pretreated rats; type: biochemical; conditions: rat liver microsomes (phenobarbital-pretreated), NADPH + CCl4, 15 min 37°C
Excerpt: (§1) L'activité antioxydante est recherchée, in vitro, par le test de formation de la malonyldialdéhyde (MDA) qui mesure la péroxydation lipidique déclenchée : soit a) de façon non enzymatique par le sulfate ferreux, dans • 1) des homogénats de cerveau ou • 2) des microsomes hépatiques de rat soit b) de façon enzymatique par NADPH et le tétrachlorure de carbone, dans des microsomes hépatiques de rat. 1.1 : La formation de MDA est mesurée sur des homogénats au 1/10^e (V/V) de cerveaux de rat S.D (200 g) préparés dans un tampon de Krebs pH 7,4 selon les conditions décrites dans J. Biol. Chem. 262 (1987) 10438-10440. On incube 1 ml d'homogénat pendant 60 mn à 37°C en présence de 25 microlitres d'éthanol contenant ou non le produit à tester, après addition de 25 microlitres de solution de sulfate ferreux préparée extemporanément dans de l'eau dégazée à l'argon (200 micromoles final). On prélève 0,25 ml de mélange incubé et ajoute 1,5 ml d'acide phosphorique à 1 %, 0,25 ml de solution 200 micromoles de déféroxamine (Desféral^R Ciba Geigy) dans l'eau, 10 microlitres de tert-butylhydroxytoluène (BHT) à 8,7 mg/ml dans l'éthanol et 0,5 ml d'acide thiobarbiturique (TBA) à 0,6 % dans l'eau. On chauffe le mélange à 100°C pendant 45 mn, refroidit, ajoute 4 ml de n-butanol, centrifuge pendant 15 mn à 4000 t/mn puis lit la DO à 535 nm de la fraction surnageante. On incube dans les mêmes conditions les blancs de réaction en absence de Fe++. On calcule le pourcentage d'inhibition : pourcentage d'inhibition =(DO en présence de produit)/(DO en absence de produit) [formula] Résultats :
2 : La formation de MDA est mesurée sur des microsomes hépatiques de rats prétraités au phénobarbital (80 mg/kg par 3 injections i.p), préparés comme décrit précédemment. On incube les microsomes pendant 15 mn à 37°C dans 1 ml contenant du tampon phosphate 0,1 M pH 7,4, 1 mg de protéine microsomale, 5 microlitres d'éthanol renfermant ou non le produit à tester, 5 microlitres de tétrachlorure de carbone (5,5 mM final) après l'addition de 50 microlitres de solution de NADPH dans le tampon phosphate (1 mM final). On arrête la réaction puis effectue le dosage selon les conditions décrites précédemment.

[2] = test system: péroxydation lipidique; assay: MDA formation test, non-enzymatic lipid peroxidation triggered by ferrous sulfate/ascorbate in rat liver microsomes; type: biochemical, rat S.D; conditions: FeSO4/ascorbate, 15 min 37°C
Excerpt: as §1
1.2 : La formation de MDA est mesurée sur des microsomes hépatiques de rat S.D (200 g) préparés à partir de la fraction sédimentée à 100.000 g d'un homogénat de foie dans un tampon sucrose dont on utilise la fraction restant insoluble à 100.000 g dans un tampon de pyrophosphate de sodium 100 mM pH 7,4 et que l'on homogénéise dans un tampon phosphate de sodium 100 mM pH 7,4 à 20 % de glycérol, puis que l'on conserve à -80°C. On incube les microsomes pendant 15 mn à 37°C dans 1 ml contenant du tampon Tris-HCl 35 mM, KCl 0,1 M pH 7,4, 1 mg de protéine microsomale, 5 microlitres d'éthanol renfermant ou non le produit à tester, 250 microlitres de solution d'ascorbate dans le tampon Tris (0,5 mM final), après l'addition de 250 microlitres de sulfate ferreux préparée extemporanément dans le tampon Tris (6 micromoles final). On arrête la réaction par addition de 2 ml d'une solution d'acide trichloracétique 1 M dans l'acide chlorhydrique 0,25 M contenant 0,4 % d'acide thiobarbiturique. On chauffe le mélange à 85°C pendant 25 mn, refroidit, centrifuge pendant 15 mn à 3500 t/mn puis lit la DO à 535 nm de la fraction surnageante. On effectue en même temps les blancs de réaction en absence de Fe++. On calcule le pourcentage d'inhibition comme précédemment.

[3] = test system: péroxydation lipidique; assay: MDA formation test, non-enzymatic lipid peroxidation triggered by ferrous sulfate in rat brain homogenates; type: biochemical, rat S.D; conditions: rat brain homogenate, FeSO4, 60 min 37°C
Excerpt: as §1, with “[formula]” for “[formula] Résultats :”

[4] = test system: oedème plantaire provoqué par l'acide arachidonique; assay: Arachidonic acid-induced paw oedema test (anti-oedema activity); type: in vivo, rats mâles EOPS de souche Sprague Dawley; conditions: rat; for Variation de volume de la patte 1 heure après AA: ** p < 0,01 (Dunnett)
Excerpt: L'activité anti-inflammatoire est évaluée in vivo par mesure de l'activité anti-oedémateuse à l'aide du test de l'oedème plantaire provoqué par l'acide arachidonique décrit par M.J. Di Martino et al. (Agents and Actions 1987 21 3/4 303).
Les animaux d'expérimentation sont des rats mâles EOPS de souche Sprague Dawley pesant 150-170 g (Iffa Credo).
Ce test est pratiqué sur des groupes de 8 rats mâles pesant 130 à 150 g à jeun depuis 16 heures. L'acide arachidonique est injecté sous l'aponévrose plantaire d'une patte postérieure à la dose de 0,2 mg sous un volume de 0,1 ml. Le volume de la patte est mesuré à l'aide d'un pléthysmomètre à eau, avant et 1 heure après l'injection de l'acide arachidonique. La différence entre ces deux volumes représente le degré d'inflammation. Les animaux sont traités par les produits à étudier ou le véhicule seul en même temps que l'injection de l'acide arachidonique.
Les produits étudiés ont été administrés par voie orale sous un volume de 4 ml/kg après avoir été mis en suspension dans la méthylcellulose à 0,5%. Toutes les expériences ont été réalisées avec comme produit de référence la dexaméthasone à la dose de 0,5 mg/kg par voie orale.
Les résultats sont exprimés en variation de volume de la patte 1 heure après l'injection d'acide arachidonique (AA), en absence ou en présence du produit à tester administré à différentes doses.
L'interprétation statistique des résultats a été effectuée selon le test de Dunnett (* p < 0,05 - ** p < 0,01) ou selon le test de Mann Whitney (° p < 0,05 - °° p < 0,01).
Pour chaque dose administrée par voie orale, on calcule le pourcentage d'inhibition de l'oedème par le produit testé, par rapport au témoin.

SMILES | pourcentage d'inhibition ([1]; 1.10^-5M, 10 µM) | pourcentage d'inhibition ([1]; 1.10^-6M, 1 µM) | pourcentage d'inhibition ([1]; 5.10^-6M, 5 µM) | pourcentage d'inhibition ([2]; 1.10^-5M, 10 µM) | pourcentage d'inhibition ([2]; 1.10^-6M, 1 µM) | pourcentage d'inhibition ([2]; 5.10^-6M, 5 µM) | pourcentage d'inhibition ([3]; 1.10^-4M, 100 µM) | pourcentage d'inhibition ([3]; 1.10^-5M, 10 µM) | pourcentage d'inhibition ([3]; 5.10^-4M, 500 µM) | Variation de volume de la patte 1 heure après AA ([4]; dose 20 mg/kg oral) | Variation de volume de la patte 1 heure après AA ([4]; dose 0,5 mg/kg oral) | Variation de volume de la patte 1 heure après AA ([4]; dose 1 mg/kg oral) | activité anti-inflammatoire ([4]; result in words, from the dose of 0,5 mg/kg oral)
CCN(CC)c1ccc(N(CC)CC)c(N2CCNCC2)n1 [Produit de l'ex. 1, N,N,N′,N′-tétraéthyl 6-(1-pipérazinyl) 2,5-pyridine diamine] | 96 ± 1 pourcentage | 43 ± 3 pourcentage | 93 ± 0,2 pourcentage | 99,4 pourcentage | 44,0 pourcentage | 99,4 pourcentage | 67,4 ± 8,6 pourcentage | 60,3 ± 9,1 pourcentage | 74,2 ± 3,8 pourcentage | 0,33 ± 0,06** cm3 | – | – | –
CCN(CC)c1ccc(N(CC)CC)c(N2CCN(CC(=O)[C@H]3[C@H](C)C[C@H]4[C@@H]5CCC6=CC(=O)C=C[C@]6(C)C5=CC[C@@]43C)CC2)n1 [Produit de l'ex. 2, 21-[4-[3,6-bis(diéthylamino) 2-pyridyl] 1-pipérazinyl] 16alpha-méthyl pregna-1,4,9(11)-triène-3,20-dione] | 91 ± 1 pourcentage | 49 ± 1,5 pourcentage | 88 ± 1 pourcentage | 99,8 pourcentage | 42,0 ± 5 pourcentage | 99,5 pourcentage | 55,6 ± 1,3 pourcentage | 63,8 ± 4,3 pourcentage | 60,4 ± 4,4 pourcentage | – | 0,32 ± 0,04** cm3 | 0,32 ± 0,01** cm3 | forte activité
